Experimental data as given in patent US20260184700A1, “PDK1 REGULATORY COMPOUND AND COMPOSITION CONTAINING THE SAME” (PROVIBIO CO., LTD., priority 2024, published 2026).

How the values were obtained:
[1] = tested on: Human B Lymphocyte cell line, SU-DHL-8; experiment: Relative cell viability, CCK-8, SU-DHL-8; assay type: cell-based; settings: 48 hours
Description: Human-derived B lymphoma cell line SU-DHL-8 (Cat. #CRL-2961) purchased from ATCC was cultured in RPMI-1640 medium containing 10% FBS, 100 U/mL penicillin, and 100 μg/mL streptomycin.
The cell culture medium was then harvested, centrifuged at 1,300 rpm for 5 minutes, and the supernatant was removed. The cells were resuspended in the same medium and dispensed into a 96-well plate (Costar 96-well cell culture plate, Corning) at 90 μL per well, resulting in the conditions specified in Table 5.
Then, 10 μL of CCK-8 was added to each well, and the plates were incubated again at 37° C. in a 5% CO2 incubator for 4 hours.
In other words, when the survival rate of untreated cells (DMSO) is set at 100%, the relative cell survival rate in each group treated with the drug at different concentrations is indicated.

[2] = tested on: T cells isolated from mouse spleen; experiment: T cell proliferation inhibition, CFSE flow cytometry, CD3/CD28 activation; assay type: cell-based; settings: CD3/CD28 activated, 3 days
Description: To verify the T cell proliferation inhibitory effect of the compounds according to the present invention, the following experiment was performed based on flow cytometry analysis using carboxyfluorescein diacetate succinimidyl ester (CFSE), a fluorescent dye that binds to intracellular molecules via covalent bonds.
Spleens were extracted from 7-week-old C57BL/6 mice, ground, and then separated into single cells using a strainer (40 μm pore size, SPL). Red blood cells were removed using ACK (Ammonium-Chloride-Potassium) lysis buffer to isolate white blood cells.
Finally, using a MACS Magnetic Stand and LS column, T cells were isolated from the spleen.
The T cells isolated from the spleen were resuspended in 1 mL of free medium (RPMI-1640+200 U/mL penicillin+200 μg/mL streptomycin), and 0.3 μL of CFSE (10 mM) was added. The mixture was incubated at 37° C. for 5 minutes.
Free medium (10 mL) was added to stop the reaction, and the cells were centrifuged to obtain the cell pellet.
RPMI 1640 medium containing 10% FBS, 100 U/mL penicillin, 100 μg/mL streptomycin, and resuspended the cells. The cells were then seeded into a 96-well plate at a density of 2×10^5 cells per well and activated with CD3 and CD28 antibodies (0.5 μg/mL each) to activate T cells.
The compound diluted in DMSO was added at concentrations of 10 nM, 100 nM, 1 μM, 10 μM, 30 μM, and 50 μM, with three wells per concentration, and cultured at 37° C. and 5% CO2 for three days. The cells were then analyzed using a FACS Canto instrument.
The proliferation inhibition rate (%) was calculated using the following formula: […]

| Structure (SMILES) | Relative cell viability (%) ([1]; SU-DHL-8, 1 μM) | Relative cell viability (%) ([1]; SU-DHL-8, 10 μM) | Relative cell viability (%) ([1]; SU-DHL-8, 30 μM) | Relative cell viability (%) ([1]; SU-DHL-8, 50 μM) | Proliferation inhibition rate (%) ([2]; compound 100 nM) | Proliferation inhibition rate (%) ([2]; compound 1 μM) | Proliferation inhibition rate (%) ([2]; compound 10 μM) | Proliferation inhibition rate (%) ([2]; compound 30 μM) | Proliferation inhibition rate (%) ([2]; compound 50 μM) | Proliferation inhibition rate (%) ([2]; compound 10 nM) | Proliferation inhibition rate (%) ([2]; compound 10 nM, listed as K-PB-48, 0.01 µM) |
| --- | --- | --- | --- | --- | --- | --- | --- | --- | --- | --- | --- |
| CN1CCN(C(=O)OC(C)(C)C)CC1CCCCCCCCNC(=O)c1cccnc1N (stereo not shown) [Compound 12, tert-Butyl 3-(8-(2-aminonicotinamide)octyl)-4-methylpiperazine-1-carboxylate] | 7.60 | 3.79 | 1.64 | 1.13 | – | – | – | – | – | – | – |
| CC1CN(CCCCCCCCCCCCNC(=O)c2cccnc2N)CC(C)O1 (stereo not shown) [Compound 21, 2-Amino-N-(12-(2,6-dimethylmorpholino)dodecyl) nicotinamide] | – | – | 3.70 | – | 100.00 | 100.00 | 100.00 | 100.00 | 100.00 | – | – |
| CC1CCN(CCCCCCCCCCCCNC(=O)c2cccnc2N)C1 (stereo not shown) [Compound 24, 2-Amino-N-(12-(3-methylpyrrolidin-1-yl)dodecyl) nicotinamide] | – | – | 0.62 | – | 100.00 | 100.00 | 100.00 | 100.00 | 100.00 | – | – |
| Nc1ncccc1C(=O)NCCCCCCCCCCCCN1CCS(=O)(=O)CC1 [Compound 25, 2-Amino-N-(12-(1,1-dioxidothiomorpholino)dodecyl) nicotinamide] | – | – | 0.11 | 0.95 | – | 100.00 | 100.00 | 100.00 | 100.00 | – | – |
| Nc1ncccc1C(=O)NCCCCCCCCCCCCN1CCC(F)C1 (stereo not shown) [Compound 26, 2-Amino-N-(12-(3-fluoropyrrolidin-1-yl)dodecyl) nicotinamide] | 1.70 | – | 0.05 | – | 100.00 | 100.00 | 100.00 | 100.00 | 100.00 | – | – |
| CC1CNCCN1CCCCCCCCCCCCNC(=O)c1cccnc1N (stereo not shown) [Compound 35, 2-Amino-N-(12-(2-methylpiperazin-1-yl)dodecyl) nicotinamide] | – | 0.64 | 0.42 | – | 100.00 | 100.00 | 100.00 | 100.00 | 100.00 | – | – |
| Nc1ncccc1C(=O)NCCCCCCCCCCCCN1CCC(Oc2ccncc2)CC1 [Compound 38, 2-Amino-N-(12-(4-(pyridin-4-yloxy)piperidin-1-yl)dodecyl) nicotinamide] | – | 3.30 | – | – | 100.00 | 100.00 | 100.00 | 100.00 | 100.00 | – | – |
| Cl.Nc1ncccc1C(=O)NCCCCCCCCCCCCN1CC[C@H](N)C1 [Compound 50, (S)-2-Amino-N-(12-(3-aminopyrrolidin-1-yl)dodecyl) nicotinamide Hydrochloride] | 9.20 | – | – | – | 100.00 | 100.00 | 100.00 | 100.00 | 100.00 | – | – |
| Cc1ccc(OC2CCN(CCCCCCCCCCCCNC(=O)c3cccnc3N)CC2)cc1 [Compound 51, 2-Amino-N-(12-(4-(p-tolyloxy)piperidin-1-yl)dodecyl) nicotinamide] | – | – | 0.89 | 0.48 | – | 100.00 | 100.00 | 100.00 | 100.00 | 0.77 | – |
| Cc1ccc(C2CCN(CCCCCCCCCCCCNC(=O)c3cccnc3N)CC2)cc1 [Compound 55, 2-Amino-N-(12-(4-(p-tolyl)piperidin-1-yl)dodecyl) nicotinamide] | – | – | 1.10 | 0.97 | 100.00 | 100.00 | 100.00 | 100.00 | 100.00 | – | – |
| CN1CCN(CCCCCCCCCCCCNC(=O)c2cccnc2F)CC1 [Compound 121, 2-fluoro-N-(12-(4-methylpiperazin-1-yl)dodecyl) nicotinamide] | – | – | – | – | 0.00 | 0.00 | 30.00 | 100.00 | 100.00 | 0.00 | – |
| Nc1ncccc1C(=O)NCCCCCCCCCCCCN1CC(F)(F)C1 [Compound 122, 2-Amino-N-(12-(3,3-difluoroazetidin-1-yl)dodecyl) nicotinamide] | – | – | – | – | 0.00 | 80.00 | 100.00 | 100.00 | 100.00 | 0.00 | – |
| COC1CCN(CCCCCCCCCCCCNC(=O)c2cccnc2N)C1 (stereo not shown) [Compound 126, 2-amino-N-(12-(3-methoxypyrrolidin-1-yl)dodecyl) nicotinamide] | – | – | – | – | 100.00 | 100.00 | 100.00 | 100.00 | 100.00 | – | 0.00 |
| Nc1ncccc1C(=O)NCCCCCCCCCCCCN1CCOC1=O [Compound 127, 2-amino-N-(12-(2-oxooxazolidin-3-yl)dodecyl) nicotinamide] | – | – | – | – | – | – | 100.00 | 100.00 | 100.00 | – | – |
| Nc1ncccc1C(=O)NCCCCCCCCCCCCNC1CCOC1 (stereo not shown) [Compound 128, 2-amino-N-(12-((tetrahydrofuran-3-yl)amino)dodecyl) nicotinamide] | – | – | – | – | 100.00 | 100.00 | 100.00 | 100.00 | 100.00 | – | – |
| Nc1ncccc1C(=O)NCCCCCCCCCCCCN1CC=CC1 [Compound 129, 2-amino-N-(12-(2,5-dihydro-1H-pyrrol-1-yl)dodecyl) nicotinamide] | – | – | – | – | 90.00 | 100.00 | 100.00 | 100.00 | 100.00 | 0.00 | – |
